For one data set, the system named is acartia tonsa. The data set is described as follows: Toxicity to crustacean, ISO 14669. It is filed as in vivo. To be noted: amount required to kill or incapacitate half the test population per amount of water. An excerpt: (§1) According to still other embodiments described herein, a disulfonate salt of 2,4-pentanedione is provided. According to one such embodiment, the salt comprises 2,4-pentanedione-1,5-sodium disulfonate. According to another such embodiment, a disulfonate salt of 2,4-pentanedione has an environmentally acceptable toxicity. As used herein, the term “environmentally acceptable toxicity” means that, when tested according to procedures that are the same as or equivalent to those set forth by the OSPAR Guidelines for Completing the Harmonised Offshore Chemical Notification Format (HOCNF) (References number: 2003-1) that were in effect on Dec. 31, 2004, the salt is determined to have a toxicity of greater than about 10,000 mg/L for an algae (skeletonema costatum), a crustacean (acartia tonsa), a fish (scopthalmus) and a sediment reworker (corophium volutator). […]
(§2) In this Example 3, the toxicity results for the skeletonema costatum were determined according to ISO (International Organization for Standardization) 10253, the protocol for which is known to those of ordinary skill in the art, and is also the protocol required under the above-referenced HOCNF Guidelines. The toxicity results for the acartia tonsa were determined according to ISO 14669, the protocol for which is known to those of ordinary skill in the art. […]

A further data set has as its system corophium volutator. The data set is described as follows: Toxicity to sediment reworker, OSPAR Protocols Part B. It is filed as in vivo. Conditions: amount required to kill or incapacitate half the test population per amount of water.
Source text: as §1, §2

The nature of data set [1]: Solubility of salt versus free acid on methanol rinse. It is filed as physicochemical. Conditions: compared to 2,4-pentanedione-1,5-disulfonic free acid. An excerpt: The neutralized product was then rinsed several times with methanol to remove by-product acids, or any salts formed therefrom, while leaving the 2,4-pentanedione-1,5-sodium disulfonate primarily undissolved. […] The rinsed product was dried in a vacuum oven and filtered through a 300 mesh screen to afford a flowing pale orange/red powder. The resulting powder was 2,4-pentanedione-1,5-sodium disulfonate.

The next data set deals with skeletonema costatum. The data set is described as follows: Toxicity to algae, ISO 10253 (OSPAR HOCNF). The class given is in vivo. To be noted: amount required to kill or incapacitate half the test population per amount of water.
Source text: as §1, §2

The nature of data set [2]: Environmentally / nationally acceptable toxicity assessment. To be noted: concluded from result > about 10,000 mg/L for the species tested. An excerpt:
According to still other embodiments described herein, a disulfonate salt of 2,4-pentanedione is provided. According to one such embodiment, the salt comprises 2,4-pentanedione-1,5-sodium disulfonate. According to another such embodiment, a disulfonate salt of 2,4-pentanedione has an environmentally acceptable toxicity. As used herein, the term “environmentally acceptable toxicity” means that, when tested according to procedures that are the same as or equivalent to those set forth by the OSPAR Guidelines for Completing the Harmonised Offshore Chemical Notification Format (HOCNF) (References number: 2003-1) that were in effect on Dec. 31, 2004, the salt is determined to have a toxicity of greater than about 10,000 mg/L for an algae (skeletonema costatum), a crustacean (acartia tonsa), a fish (scopthalmus) and a sediment reworker (corophium volutator).
According to yet another embodiment, a disulfonate salt of 2,4-pentanedione has a “nationally acceptable toxicity.” As used herein, the term “nationally acceptable toxicity” means that when tested according to procedures that are the same as or equivalent to those in effect in a country of interest on Dec. 31, 2004, the salt is determined to have a toxicity acceptable for use in the areas subject to such country's procedures. […]

In the next data set the test system is scopthalmus. The data set is described as follows: Toxicity to fish, OSPAR Protocols Part B. The class given is in vivo. To be noted: amount required to kill or incapacitate half the test population per amount of water.
Source text: as §1, §2

Take `O=C(CC(=O)CS(=O)(=O)[O-])CS(=O)(=O)[O-].[Na+].[Na+]` [2,4-pentanedione-1,5-sodium disulfonate]: the toxicity entry with acartia tonsa, with corophium volutator, in the data set on skeletonema costatum and in the data set with scopthalmus was “greater than 10,000 mg/L” in each case. Further, the “solubility compared to the free acid” value in data set [1] was “significantly less soluble”. Besides, the toxicity acceptability result in data set [2] is reported as “low toxicity”.
